Reference: US20140364428A1, “5-(3-AMINOPHENYL)-5-ALKYL-5,6-DIHYDRO-2H-[1,4]OXAZIN-3-AMINE DERIVATIVES” (Janssen Pharmaceutica NV, priority 2011, published 2014)

Key:
[1] = test system: Abeta total produced and secreted into the medium of human neuroblastoma SKNBE2 cells; assay: Cellular αLisa assay in SKNBE2 cells, Abeta total; type: cell-based; conditions: SKNBE2 cells expressing wild type hAPP695, incubated for 18 hours, read-out: Cellular αLisa assay in SKNBE2 cells Abetatotal pIC50 (converted)
Protocol: (§1) In two αLisa assays the levels of Abeta total and Abeta 1-42 produced and secreted into the medium of human neuroblastoma SKNBE2 cells are quantified. The assay is based on the human neuroblastoma SKNBE2 expressing the wild type Amyloid Precursor Protein (hAPP695). The compounds are diluted and added to these cells, incubated for 18 hours and then measurements of Abeta 1-42 and Abeta total are taken. Abeta total and Abeta 1-42 are measured by sandwich αLisa. αLisa is a sandwich assay using biotinylated antibody AbN/25 attached to streptavidin coated beads and antibody Ab4G8 or cAb42/26 conjugated acceptor beads for the detection of Abeta total and Abeta 1-42 respectively. In the presence of Abeta total or Abeta 1-42, the beads come into close proximity. The excitation of the donor beads provokes the release of singlet oxygen molecules that trigger a cascade of energy transfer in the acceptor beads, resulting in light emission. Light emission is measured after 1 hour incubation (excitation at […] and emission at 615 nm).
(§2) A best-fit curve is fitted by a minimum sum of squares method to the plot of % Controlmin versus compound concentration. From this an IC50 value (inhibitory concentration causing 50% inhibition of activity) can be obtained.

[2] = test system: Abeta 1-42 produced and secreted into the medium of human neuroblastoma SKNBE2 cells; assay: Cellular αLisa assay in SKNBE2 cells, Abeta 1-42; type: cell-based; conditions: SKNBE2 cells expressing wild type hAPP695, incubated for 18 hours, read-out: Cellular αLisa assay in SKNBE2 cells Abeta 42 pIC50 (converted)
Protocol: as §1, §2

[3] = biological target: T1, BACE1 (Homo sapiens, UniProt P56817); assay: Biochemical FRET based assay; conditions: recombinant BACE1 protein, APP derived 13 amino acids peptide substrate ('Swedish' mutation), 120 minutes at room temperature, pH 5.0; read-out: Biochemical FRET based assay pIC50 (converted)
T1 construct: recombinant BACE1 protein in a final concentration of 1 mg/ml
Source text: This assay is a Fluorescence Resonance Energy Transfer Assay (FRET) based assay. The substrate for this assay is an APP derived 13 amino acids peptide that contains the ‘Swedish’ Lys-Met/Asn-Leu mutation of the amyloid precursor protein (APP) beta-secretase cleavage site. This substrate also contains two fluorophores: (7-methoxycoumarin-4-yl) acetic acid (Mca) is a fluorescent donor with excitation wavelength at 320 nm and emission at 405 nm and 2,4-Dinitrophenyl (Dnp) is a proprietary quencher acceptor. […] Upon cleavage by BACE1, the fluorophore Mca is separated from the quenching group Dnp, restoring the full fluorescence yield of the donor. The increase in fluorescence is linearly related to the rate of proteolysis.
Briefly in a 384-well format recombinant BACE1 protein in a final concentration of 1 mg/ml is incubated for 120 minutes at room temperature with […] in incubation buffer (40 mM Citrate buffer pH 5.0, 0.04% PEG, 4% DMSO) in the absence or presence of compound. Next the amount of proteolysis is directly measured by fluorescence measurement at T=0 and T=120 (excitation at 320 nm and emission at 405 nm). Results are expressed in RFU (Relative Fluorescence Units), as difference between T120 and TO.
as §2

T1 sequence (P56817 46-501): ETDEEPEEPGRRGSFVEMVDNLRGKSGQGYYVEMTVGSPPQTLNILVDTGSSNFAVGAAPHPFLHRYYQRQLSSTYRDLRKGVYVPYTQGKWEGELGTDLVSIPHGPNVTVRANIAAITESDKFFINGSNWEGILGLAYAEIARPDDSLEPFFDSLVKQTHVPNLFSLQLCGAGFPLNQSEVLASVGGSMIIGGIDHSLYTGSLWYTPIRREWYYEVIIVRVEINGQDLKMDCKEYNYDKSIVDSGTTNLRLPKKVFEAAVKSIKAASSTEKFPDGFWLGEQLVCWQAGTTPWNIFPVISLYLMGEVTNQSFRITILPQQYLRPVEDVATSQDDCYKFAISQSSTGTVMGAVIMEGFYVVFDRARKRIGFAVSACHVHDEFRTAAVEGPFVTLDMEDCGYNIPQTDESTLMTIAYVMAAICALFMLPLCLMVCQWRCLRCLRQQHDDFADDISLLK

Row | Structure (SMILES) | melting point [°C] | IC50 [1] [nM] | IC50 [2] [nM] | IC50 [3] [nM]
1 | COc1cccnc1Nc1ccc(F)c([C@@]2(C)N=C(N)COC2C(F)F)c1 (single isomer, unassigned) [Compound 4, (5R,6R*)-6-(Difluoromethyl)-5-{2-fluoro-5-[(3-methoxypyridin-2-yl)amino]phenyl}-5-methyl-5,6-dihydro-2H-1,4-oxazin-3-amine] | 136.93 | 10.5 | 9.12 | 58.9
2 | COc1cccnc1Nc1cccc([C@@]2(C3CC3)N=C(N)CO[C@@]2(F)C(F)(F)F)c1 [Compound 1, (5R,6S)-5-cyclopropyl-6-fluoro-5-{3-[(3-methoxypyridin-2-yl)amino]phenyl}-6-(trifluoromethyl)-5,6-dihydro-2H-1,4-oxazin-3-amine] |  | 53.7 | 60.3 | 26.3
3 | COc1cccnc1Nc1ccc(F)c([C@@]2(C)N=C(N)CO[C@@H]2F)c1 [Compound 2, (5R,6R)-6-fluoro-5-{2-fluoro-5-[(3-methoxypyridin-2-yl)amino]phenyl}-5-methyl-5,6-dihydro-2H-1,4-oxazin-3-amine] |  | 19.5 | 24 | 162
4 | COc1cccnc1Nc1ccc(F)c([C@@]2(C)N=C(N)COC2=C(F)F)c1 [Compound 3, (5R)-6-(difluoromethylidene)-5-{2-fluoro-5-[(3-methoxyPyridin-2-yl)amino]phenyl}-5-methyl-5,6-dihydro-2H-1,4-oxazin-3-amine] |  | 89.1 | 105 | 759
5 | C[C@]1(c2cc(Nc3ncccn3)ccc2F)N=C(N)CO[C@@H]1F [Compound 5, (5R,6R)-6-fluoro-5-[2-fluoro-5-(pyrimidin-2-ylamino)phenyl]-5-methyl-5,6-dihydro-2H-1,4-oxazin-3-amine] |  | 1100 | 1260 | 1950
6 | COc1cccnc1Nc1ccc(F)c([C@@]2(C)N=C(N)CO[C@H]2C(F)(F)F)c1 [Compound 6, (5R,6R)-5-{2-fluoro-5-[(3-methoxypyridin-2-yl)amino]phenyl}-5-methyl-6-(trifluoromethyl)-5,6-dihydro-2H-1,4-oxazin-3-amine] |  | 20.9 | 21.4 | 138
7 | C[C@]1(c2cc(Nc3ncccn3)ccc2F)N=C(N)CO[C@H]1C(F)(F)F [Compound 7, (5R,6R)-5-[2-fluoro-5-(pyrimidin-2-ylamino)phenyl]-5-methyl-6-(trifluoromethyl)-5,6-dihydro-2H-1,4-oxazin-3-amine] |  | 832 | 759 | 3720
8 | COc1nccnc1Nc1ccc(F)c([C@@]2(C)N=C(N)CO[C@@H]2F)c1 [Compound 8, (5R,6R)-6-fluoro-5-{2-fluoro-5-[(3-methoxypyrazin-2-yl)amino]phenyl}-5-methyl-5,6-dihydro-2H-1,4-oxazin-3-amine] |  | 138 | 129 | 309
9 | CC1(c2cc(Nc3ncccc3C#N)ccc2F)N=C(N)COC1F (stereo not shown) [Compound 9] |  | 87.1 | 129 | 224
